Data taken from patent publication US7638631B2, “Methylene dipiperidine derivatives” (Glaxo Group Limited, priority 2004, dated 2009).

Legend:
[1] = molecular target: T1, histamine H3 receptor (Homo sapiens, UniProt Q9Y5N1); assay: Histamine H3 functional antagonist assay (method A), [35S]-GTPγS SPA on membranes; format: biochemical; conditions: membrane from cultured H3 cells, histamine at EC80, averages of a number of experiments, read-out: functional pKi (fpKi), histamine H3 functional antagonist assay (method A) (converted)
T1 construct: expressed in transfected cells; host or cells: CHO K1 cells carrying pSwitch, transfected with pGeneH3, mifepristone-induced; clone 3H3; membranes
T1 sequence (Q9Y5N1 whole entry): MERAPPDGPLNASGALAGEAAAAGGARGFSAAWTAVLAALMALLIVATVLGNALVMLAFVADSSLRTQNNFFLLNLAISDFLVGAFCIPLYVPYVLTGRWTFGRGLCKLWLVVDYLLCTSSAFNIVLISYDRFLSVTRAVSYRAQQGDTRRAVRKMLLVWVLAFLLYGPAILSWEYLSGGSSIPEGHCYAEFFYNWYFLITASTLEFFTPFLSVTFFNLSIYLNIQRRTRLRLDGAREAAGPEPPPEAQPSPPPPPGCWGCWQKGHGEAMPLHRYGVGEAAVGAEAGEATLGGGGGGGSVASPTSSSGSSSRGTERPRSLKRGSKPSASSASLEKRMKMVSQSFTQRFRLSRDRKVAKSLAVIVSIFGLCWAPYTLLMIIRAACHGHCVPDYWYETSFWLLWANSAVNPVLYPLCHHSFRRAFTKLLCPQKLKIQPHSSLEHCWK
From the text: (§1) A membrane preparation containing histamine H3 receptors may be prepared in accordance with the following procedures:
(§2) DNA encoding the human histamine H3 gene (Huvar, A. et al. (1999) Mol. Pharmacol. 55(6), 1101-1107) was cloned into a holding vector, pCDNA3.1 TOPO (InVitrogen) and its cDNA was isolated from this vector by restriction digestion of plasmid DNA with the enzymes BamH1 and Not-1 and ligated into the inducible expression vector pGene (InVitrogen) digested with the same enzymes. The GeneSwitch™ system (a system where in transgene expression is switched off in the absence of an inducer and switched on in the presence of an inducer) was performed as described in U.S. Pat. Nos.: 5,364,791; 5,874,534; and 5,935,934. Ligated DNA was transformed into competent DH5α E. coli host bacterial cells and plated onto Luria Broth (LB) agar containing Zeocin™ (an antibiotic which allows the selection of cells expressing the sh ble gene which is present on pGene and pSwitch) at 50 μg ml^−1. Colonies containing the re-ligated plasmid were identified by restriction analysis. DNA for transfection into mammalian cells was prepared from 250 ml cultures of the host bacterium containing the pGeneH3 plasmid and isolated using a DNA preparation kit (Qiagen Midi-Prep) as per manufacturers guidelines (Qiagen). CHO K1 cells previously transfected with the pSwitch regulatory plasmid (InVitrogen) were seeded at 2×10e6 cells per T75 flask in Complete Medium, containing Hams F12 (GIBCOBRL, Life Technologies) medium supplemented with 10% v/v dialysed foetal bovine serum, L-glutamine, and hygromycin (100 μg ml^−1), 24 hours prior to use. Plasmid DNA was transfected into the cells using Lipofectamine plus according to the manufacturers guidelines (InVitrogen). 48 hours post transfection cells were placed into complete medium supplemented with 500 μg ml^−1 Zeocin™.
10-14 days post selection 10 nM Mifepristone (InVitrogen), was added to the culture medium to induce the expression of the receptor. 18 hours post induction cells were detached from the flask using ethylenediamine tetra-acetic acid (EDTA; 1:5000; InVitrogen), following several washes with phosphate buffered saline pH 7.4 and resuspended in Sorting Medium containing Minimum Essential Medium (MEM), without phenol red, and supplemented with Earles salts and 3% Foetal Clone II (Hyclone). […] Receptor bound antibody was detected by incubation of the cells for 60 minutes on ice with a goat anti rabbit antibody, conjugated with Alexa 488 fluorescence marker (Molecular Probes). Following two further washes with Sorting Medium, cells were filtered through a 50 μm Filcon™ (BD Biosciences) and then analysed on a FACS Vantage SE Flow Cytometer fitted with an Automatic Cell Deposition Unit. […]

[2] = molecular target: T2, human H1 receptor (Homo sapiens, UniProt P35367); assay: Histamine H1 functional antagonist assay (FLIPR, Chinese hamster ovary cells); format: cell-based; conditions: H1 cell line, FLIPR fluorescence, histamine at EC80; Cheng-Prusoff; averages of a number of experiments; read-out: functional pKi (fpKi), histamine H1 functional antagonist assay (converted)
T2 construct: expressed in transfected cells
T2 sequence (P35367 whole entry): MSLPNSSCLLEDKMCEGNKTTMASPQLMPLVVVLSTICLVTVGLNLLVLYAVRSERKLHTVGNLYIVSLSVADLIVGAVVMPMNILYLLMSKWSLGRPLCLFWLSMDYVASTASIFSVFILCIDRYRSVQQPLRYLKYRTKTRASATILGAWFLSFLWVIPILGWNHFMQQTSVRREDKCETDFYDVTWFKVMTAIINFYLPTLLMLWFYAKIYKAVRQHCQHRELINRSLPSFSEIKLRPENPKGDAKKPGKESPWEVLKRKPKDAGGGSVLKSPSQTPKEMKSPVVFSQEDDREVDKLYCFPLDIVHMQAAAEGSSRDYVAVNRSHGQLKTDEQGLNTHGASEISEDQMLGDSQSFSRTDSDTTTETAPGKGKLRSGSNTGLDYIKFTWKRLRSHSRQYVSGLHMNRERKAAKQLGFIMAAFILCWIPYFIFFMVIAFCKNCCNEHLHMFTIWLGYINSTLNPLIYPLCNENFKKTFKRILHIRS
Description: (iii) Generation of Histamine H1 Cell Line
The human H1 receptor was cloned using known procedures described in the literature [Biochem. Biophys. Res. Commun. 1994, 201(2), 894]. Chinese hamster ovary cells stably expressing the human Hi receptor were generated according to known procedures described in the literature [Br. J. Pharmacol. 1996, 117(6), 1071].
(II) Histamine H1 Functional Antagonist Assay
The histamine H1 cell line was seeded into non-coated black-walled clear bottom 384-well tissue culture plates in alpha minimum essential medium (Gibco/Invitrogen, cat no. 22561-021), supplemented with 10% dialysed foetal calf serum (Gibco/Invitrogen cat no. 12480-021) and 2 mM L-glutamine (Gibco/Invitrogen cat no 25030-024) and maintained overnight at 5% CO2, 37° C.
Excess medium was removed from each well to leave 10 μl. 30 μl loading dye (250 μM Brilliant Black, 2 μM Fluo-4 diluted in Tyrodes buffer+probenecid (145 mM NaCl, 2.5 mM KCl, 10 mM HEPES, 10 mM D-glucose, 1.2 mM MgCl2, 1.5 mM CaCl2, 2.5 mM probenecid, pH adjusted to 7.40 with NaOH 1.0 M)) was added to each well and the plates were incubated for 60 minutes at 5% CO2, 37° C.
10 μl of test compound, diluted to the required concentration in Tyrodes buffer+probenecid (or 10 μl Tyrodes buffer+probenecid as a control) was added to each well and the plate incubated for 30 min at 37° C., 5% CO2. The plates were then placed into a FLIPR™ (Molecular Devices, UK) to monitor cell fluorescence (λex=488 nm, λEM=540 nm) in the manner described in Sullivan et al. (In: Lambert DG (ed.), Calcium Signaling Protocols, New Jersey: Humana Press, 1999, 125-136) before and after the addition of 10 μl histamine at a concentration that results in the final assay concentration of histamine being EC80.
Functional antagonism is indicated by a suppression of histamine induced increase in fluorescence, as measured by the FLIPR™ system (Molecular Devices). By means of concentration effect curves, functional affinities are determined using standard pharmacological mathematical analysis.

[3] = molecular target: T1, histamine H3 receptor; assay: Histamine H3 functional antagonist assay (method B), [35S]-GTPγS SPA on membranes; format: biochemical; conditions: membrane from cultured H3 cells, histamine at EC80, averages of a number of experiments, read-out: functional pKi (fpKi), histamine H3 functional antagonist assay (method B) (converted)
From the text: as §1, §2
10-14 days post selection 10 nM Mifepristone (InVitrogen), was added to the culture medium to induce the expression of the receptor. 18 hours post induction cells were detached from the flask using ethylenediamine tetra-acetic acid (EDTA; 1:5000; InVitrogen), following several washes with phosphate buffered saline pH 7.4 and resuspended in Sorting Medium containing Minimum Essential Medium (MEM), without phenol red, and supplemented with Earles salts and 3% Foetal Clone II (Hyclone). Approximately 1×10e7 cells were examined for receptor expression by staining with a rabbit polyclonal antibody, 4a, raised against the N-terminal domain of the histamine H3 receptor, incubated on ice for 60 minutes, followed by two washes in sorting medium. Receptor bound antibody was detected by incubation of the cells for 60 minutes on ice with a goat anti rabbit antibody, conjugated with Alexa 488 fluorescence marker (Molecular Probes). Following two further washes with Sorting Medium, cells were filtered through a 50 μm Filcon™ (BD Biosciences) and then analysed on a FACS Vantage SE Flow Cytometer fitted with an Automatic Cell Deposition Unit. Control cells were non-induced cells treated in a similar manner. Positively stained cells were sorted as single cells into 96-well plates, containing Complete Medium containing 500 μg ml^−1 Zeocin™ and allowed to expand before reanalysis for receptor expression via antibody and ligand binding studies. One clone, 3H3, was selected for membrane preparation.
All steps of the protocol are carried out at 4° C. and with pre-cooled reagents. The cell pellet is resuspended in 10 volumes of homogenisation buffer (50 mM N-2-hydroxyethylpiperazine-N′-2-ethanesulfonic acid (HEPES), 1 mM ethylenediamine tetra-acetic acid (EDTA), pH 7.4 with KOH, supplemented with 10e-6M leupeptin (acetyl-leucyl-leucyl-arginal; Sigma L2884), 25 μg/ml bacitracin (Sigma B0125), 1 mM phenylmethylsulfonyl fluoride (PMSF) and 2×10e-6M pepstain A (Sigma)). The cells are then homogenised by 2×15 second bursts in a 1 liter glass Waring blender, followed by centrifugation at 500 g for 20 minutes. […]

Ki [1] [nM] | Ki [2] [nM] | Ki [3] [nM] | SMILES
≤ 0.316 |  |  | Cc1noc(-c2ccc(N3CCC(CC4CCN(C(C)C)CC4)CC3)cc2)n1 [Example E13, 1-(1-Methylethyl)-4-({1-[4-(3-methyl-1,2,4-oxadiazol-5-yl)phenyl]-4-piperidinyl}methyl)piperidine]
≤ 10 |  |  | CC(C)NC(=O)c1cnc(N2CCC(CC3CCN(C(C)C)CC3)CC2)cn1 [Example E7]
 | > 1000 | ≤ 1 | CNC(=O)c1ccc(N2CCC(CC3CCN(C4CCC4)CC3)CC2)cn1 [Example E11, 5-{4-[(1-Cyclobutyl-4-piperidinyl)methyl]-1-piperidinyl}-N-methyl-2-pyridinecarboxamide]
≤ 1 |  | ≤ 1 | CNC(=O)c1ccc(N2CCC(CC3CCN(C(C)C)CC3)CC2)cn1 [Example E12, N-Methyl-5-(4-{[1-(1-methylethyl)-4-piperidinyl]methyl}-1-piperidinyl)-2-pyridinecarboxamide]
≤ 1 | > 1000 |  | CC(C)NC(=O)c1cnc(N2CCC(CC3CCN(C4CCC4)CC3)CC2)cn1 [Example E6, 5-{4-[(1-Cyclobutyl-4-piperidinyl)methyl]-1-piperidinyl}-N-(1-methylethyl)-2-pyrazinecarboxamide]
 |  | ≤ 0.316 | CC(=O)c1ccc(N2CCC(CC3CCN(C4CCC4)CC3)CC2)cn1 [Example E24, 1-(5-{4-[(1-Cyclobutyl-4-piperidinyl)methyl]-1-piperidinyl}-2-pyridinyl)ethanone]
 |  | ≤ 0.316 | CCN1CCC(CC2CCN(c3ccc(-c4nc(C)no4)cc3)CC2)CC1 [Example E18]
 | > 1000 | ≤ 1 | CCNC(=O)c1cnc(N2CCC(CC3CCN(C4CCC4)CC3)CC2)cn1 [Example E9, 5-{4-[(1-cyclobutyl-4-piperidinyl)methyl]-1-piperidinyl}-N-ethyl-2-pyrazinecarboxamide]
 |  | ≤ 1 | CC(=O)c1ccc(N2CCC(CC3CCN(C4CCC4)CC3)CC2)nc1 [Example E29]
 |  | ≤ 1 | CCN1CCC(CC2CCN(c3ccc(C(C)=O)cc3)CC2)CC1 [Example E27]
 |  | ≤ 0.316 | Cc1noc(-c2ccc(N3CCC(CC4CCN(C(C)C)CC4)CC3)cc2F)n1 [Example E16, 1-[3-fluoro-4-(3-methyl-1,2,4-oxadiazol-5-yl)phenyl]-4-{[1-(1-methylethyl)-4-piperidinyl]methyl}piperidine]
 |  | ≤ 1 | CNC(=O)c1cnc(N2CCC(CC3CCN(C4CCC4)CC3)CC2)cn1 [Example E8]
 |  | ≤ 0.316 | N#Cc1ccc(N2CCC(CC3CCN(C4CCC4)CC3)CC2)cn1 [Example E22, 5-{4-[(1-Cyclobutyl-4-piperidinyl)methyl]-1-piperidinyl}-2-pyridinecarbonitrile]
 | > 1000 | ≤ 10 | CC(C)N1CCC(CC2CCN(c3cnc(C(F)(F)F)nc3)CC2)CC1 [Example E36, 5-(4-{[1-(1-Methylethyl)-4-piperidinyl]methyl}-1-piperidinyl)-2-(trifluoromethyl)pyrimidine]
 |  | ≤ 1 | FC(F)(F)c1ccc(N2CCC(CC3CCN(C4CCC4)CC3)CC2)nn1 [Example E34]
 |  | ≤ 1 | CC(C)N1CCC(CC2CCN(c3ccc(C#N)nc3)CC2)CC1 [Example E21, 5-(4-{[1-(1-Methylethyl)-4-piperidinyl]methyl}-1-piperidinyl)-2-pyridinecarbonitrile]
 |  | ≤ 1 | CC(=O)c1ccc(N2CCC(CC3CCN(C(C)C)CC3)CC2)cn1 [Example E23, 1-{[5-(4-[1-(1-Methylethyl)-4-piperidinyl]methyl}-1-piperidinyl)-2-pyridinyl]ethanone]
 |  | ≤ 1 | CC(=O)c1ccc(N2CCC(CC3CCN(C4CCC4)CC3)CC2)cc1 [Example E25, 1-(4-{4-[(1-Cyclobutyl-4-piperidinyl)methyl]-1-piperidinyl}phenyl)ethanone]
 |  | ≤ 1 | O=C(c1ccc(N2CCC(CC3CCN(C4CCC4)CC3)CC2)cc1)C(F)(F)F [Example E31]
 |  | ≤ 1 | Cc1noc(-c2ccc(N3CCC(CC4CCN(C(C)C)CC4)CC3)cn2)n1 [Example E15, 5-(4-{[1-(1-Methylethyl)-4-piperidinyl]methyl}-1-piperidinyl)-2-(3-methyl-1,2,4-oxadiazol-5-yl)pyridine]
 |  | ≤ 1 | CC(=O)c1ccc(N2CCC(CC3CCN(C(C)C)CC3)CC2)cc1 [Example E26]
 |  | ≤ 1 | Cc1noc(-c2ccc(N3CCC(CC4CCN(C5CCC5)CC4)CC3)cn2)n1 [Example E17, 5-{4-[(1-cyclobutyl-4-piperidinyl)methyl]-1-piperidinyl}-2-(3-methyl-1,2,4-oxadiazol-5-yl)pyridine]
 |  | ≤ 1 | Cc1noc(-c2ccc(N3CCC(CC4CCN(C(C)C)CC4)CC3)c(F)c2)n1 [Example E14, 1-[2-Fluoro-4-(3-methyl-1,2,4-oxadiazol-5-yl)phenyl]-4-{[1-(1-methylethyl)-4-piperidinyl]methyl}piperidine]
